The results in this text go back to patent US9340590B2 (priority 2011, dated 2016).

Structures are written as SMILES. Read-outs that look alike come from different tables or passages of the source. Positions of bridges follow the written chain, without caps; N, C: chain ends. Non-standard residues stand in square brackets, D forms with d. Residues, ends and D or L forms follow the SMILES beside them. NMeF = CN[C@@H](Cc1ccccc1)C(=O)O; Pra = C#CC[C@H](N)C(=O)O

What all share (assay): cell-based
The target of one assay is hNav1.3 (Homo sapiens, UniProt Q9NY46). To be noted: IonWorks Quattro, read-out: IWQ Use Nav1.3. Background: Patch clamp records ionic current or voltage across a cell membrane.
Another assay concerns the target hNav1.7 (Homo sapiens, UniProt Q15858). Type of assay: cell-based. The settings on record: IonWorks Quattro, read-out: IWQ Use Nav1.7.
The next assay addresses hNav1.5 (Homo sapiens, UniProt Q14524). The settings on record: IonWorks Quattro, read-out: IWQ Use Nav1.5.

Chain of hNav1.5 (Q14524 whole entry, looked up): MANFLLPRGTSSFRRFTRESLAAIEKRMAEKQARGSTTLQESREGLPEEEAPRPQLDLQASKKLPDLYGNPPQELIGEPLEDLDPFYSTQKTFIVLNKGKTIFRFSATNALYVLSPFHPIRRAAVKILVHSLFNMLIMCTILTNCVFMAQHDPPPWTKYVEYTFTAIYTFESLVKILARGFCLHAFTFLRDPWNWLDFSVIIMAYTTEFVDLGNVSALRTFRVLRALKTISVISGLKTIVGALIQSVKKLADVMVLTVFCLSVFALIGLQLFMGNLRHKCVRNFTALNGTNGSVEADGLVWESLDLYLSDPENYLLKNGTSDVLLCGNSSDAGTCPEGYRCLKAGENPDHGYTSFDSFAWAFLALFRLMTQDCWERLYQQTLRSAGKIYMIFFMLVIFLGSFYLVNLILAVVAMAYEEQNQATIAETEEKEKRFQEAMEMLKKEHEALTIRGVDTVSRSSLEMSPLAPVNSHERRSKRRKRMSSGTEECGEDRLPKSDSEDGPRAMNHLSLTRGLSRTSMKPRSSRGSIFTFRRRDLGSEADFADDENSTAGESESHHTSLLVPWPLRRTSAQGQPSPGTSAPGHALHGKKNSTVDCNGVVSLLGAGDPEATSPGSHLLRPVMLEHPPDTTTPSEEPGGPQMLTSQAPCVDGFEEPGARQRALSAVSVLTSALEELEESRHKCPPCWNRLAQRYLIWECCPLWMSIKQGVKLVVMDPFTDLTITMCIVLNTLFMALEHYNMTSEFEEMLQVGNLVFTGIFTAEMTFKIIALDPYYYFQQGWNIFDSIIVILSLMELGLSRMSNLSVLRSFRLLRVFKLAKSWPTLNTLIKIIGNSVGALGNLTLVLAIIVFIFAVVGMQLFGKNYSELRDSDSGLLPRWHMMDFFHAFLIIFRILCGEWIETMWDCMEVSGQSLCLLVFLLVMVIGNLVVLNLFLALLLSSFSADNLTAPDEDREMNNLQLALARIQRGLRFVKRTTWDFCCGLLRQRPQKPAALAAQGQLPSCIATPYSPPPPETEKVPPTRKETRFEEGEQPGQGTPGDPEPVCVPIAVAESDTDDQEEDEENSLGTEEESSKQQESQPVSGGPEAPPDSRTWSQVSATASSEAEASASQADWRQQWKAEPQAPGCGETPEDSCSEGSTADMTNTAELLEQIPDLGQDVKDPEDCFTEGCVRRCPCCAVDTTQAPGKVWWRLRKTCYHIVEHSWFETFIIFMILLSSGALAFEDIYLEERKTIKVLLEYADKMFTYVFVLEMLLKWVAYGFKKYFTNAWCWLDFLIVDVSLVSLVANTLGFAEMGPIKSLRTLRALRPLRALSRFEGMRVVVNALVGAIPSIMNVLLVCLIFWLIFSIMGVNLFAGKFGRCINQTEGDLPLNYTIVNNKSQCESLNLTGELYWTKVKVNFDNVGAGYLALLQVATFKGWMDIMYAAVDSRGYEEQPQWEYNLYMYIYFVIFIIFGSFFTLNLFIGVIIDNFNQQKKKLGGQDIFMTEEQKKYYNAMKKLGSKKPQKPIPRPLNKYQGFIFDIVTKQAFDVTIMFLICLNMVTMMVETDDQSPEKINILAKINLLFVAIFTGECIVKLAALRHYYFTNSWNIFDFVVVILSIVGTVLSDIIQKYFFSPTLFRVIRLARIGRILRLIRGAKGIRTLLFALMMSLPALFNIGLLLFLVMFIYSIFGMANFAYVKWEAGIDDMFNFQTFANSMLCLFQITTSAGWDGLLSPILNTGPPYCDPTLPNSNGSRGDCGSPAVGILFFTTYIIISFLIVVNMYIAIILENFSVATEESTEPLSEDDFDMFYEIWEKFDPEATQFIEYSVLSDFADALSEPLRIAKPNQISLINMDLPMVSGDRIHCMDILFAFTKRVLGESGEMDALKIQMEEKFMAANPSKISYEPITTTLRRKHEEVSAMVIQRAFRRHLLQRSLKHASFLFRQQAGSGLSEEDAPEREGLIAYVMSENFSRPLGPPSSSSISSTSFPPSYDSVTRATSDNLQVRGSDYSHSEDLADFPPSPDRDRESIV
Chain of hNav1.7 (Q15858 whole entry, looked up): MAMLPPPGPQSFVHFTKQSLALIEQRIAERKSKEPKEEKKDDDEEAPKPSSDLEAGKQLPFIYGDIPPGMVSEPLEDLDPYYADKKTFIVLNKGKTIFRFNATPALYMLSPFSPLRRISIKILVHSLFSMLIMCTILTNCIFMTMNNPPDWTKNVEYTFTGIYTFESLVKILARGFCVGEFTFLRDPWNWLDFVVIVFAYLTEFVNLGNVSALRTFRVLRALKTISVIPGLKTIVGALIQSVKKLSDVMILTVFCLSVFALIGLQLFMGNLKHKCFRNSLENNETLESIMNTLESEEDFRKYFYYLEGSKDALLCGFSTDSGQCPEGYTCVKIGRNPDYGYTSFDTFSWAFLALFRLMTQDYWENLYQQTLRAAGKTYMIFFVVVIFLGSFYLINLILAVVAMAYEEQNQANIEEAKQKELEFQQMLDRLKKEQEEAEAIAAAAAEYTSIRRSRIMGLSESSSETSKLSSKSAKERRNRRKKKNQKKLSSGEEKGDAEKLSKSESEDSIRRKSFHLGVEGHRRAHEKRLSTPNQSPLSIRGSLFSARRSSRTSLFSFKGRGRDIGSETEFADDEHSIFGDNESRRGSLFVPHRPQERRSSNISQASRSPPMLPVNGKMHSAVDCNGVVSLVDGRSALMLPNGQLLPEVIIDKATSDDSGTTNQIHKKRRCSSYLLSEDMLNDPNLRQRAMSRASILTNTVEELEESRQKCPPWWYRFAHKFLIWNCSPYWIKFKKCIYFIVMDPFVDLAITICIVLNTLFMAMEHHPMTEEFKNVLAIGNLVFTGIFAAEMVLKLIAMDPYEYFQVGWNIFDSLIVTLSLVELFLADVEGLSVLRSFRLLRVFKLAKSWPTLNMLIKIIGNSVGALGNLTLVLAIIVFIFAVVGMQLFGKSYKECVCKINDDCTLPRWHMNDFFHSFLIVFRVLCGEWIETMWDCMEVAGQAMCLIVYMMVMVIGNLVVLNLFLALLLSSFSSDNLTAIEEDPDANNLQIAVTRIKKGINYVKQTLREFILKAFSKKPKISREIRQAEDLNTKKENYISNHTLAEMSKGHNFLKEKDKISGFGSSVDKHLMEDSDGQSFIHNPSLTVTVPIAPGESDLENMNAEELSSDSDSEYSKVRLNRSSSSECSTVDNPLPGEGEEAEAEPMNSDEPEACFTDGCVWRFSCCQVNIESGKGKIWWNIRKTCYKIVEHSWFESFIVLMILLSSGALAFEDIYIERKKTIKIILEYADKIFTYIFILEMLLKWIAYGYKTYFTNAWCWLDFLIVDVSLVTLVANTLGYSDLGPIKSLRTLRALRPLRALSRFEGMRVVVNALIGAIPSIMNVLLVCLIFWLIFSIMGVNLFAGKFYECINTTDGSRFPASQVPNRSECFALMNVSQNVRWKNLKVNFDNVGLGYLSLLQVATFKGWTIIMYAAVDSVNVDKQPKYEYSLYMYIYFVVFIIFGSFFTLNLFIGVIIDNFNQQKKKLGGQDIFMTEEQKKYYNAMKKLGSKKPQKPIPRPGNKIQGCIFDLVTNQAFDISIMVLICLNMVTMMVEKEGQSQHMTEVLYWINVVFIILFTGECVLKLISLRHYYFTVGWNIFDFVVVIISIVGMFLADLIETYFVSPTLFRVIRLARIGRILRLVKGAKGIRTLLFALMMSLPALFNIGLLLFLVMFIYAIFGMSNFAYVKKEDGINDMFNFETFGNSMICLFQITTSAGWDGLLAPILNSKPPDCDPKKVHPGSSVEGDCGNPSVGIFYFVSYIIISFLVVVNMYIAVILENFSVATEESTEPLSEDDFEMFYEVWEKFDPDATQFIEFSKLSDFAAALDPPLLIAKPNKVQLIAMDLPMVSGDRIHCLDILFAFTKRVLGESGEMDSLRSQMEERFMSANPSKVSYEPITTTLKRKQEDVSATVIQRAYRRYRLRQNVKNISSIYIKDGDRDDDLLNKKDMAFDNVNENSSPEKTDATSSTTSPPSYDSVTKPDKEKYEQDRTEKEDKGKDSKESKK

As for `C#CC[C@@H]1NC(=O)[C@H](CC(=O)O)NC(=O)[C@@H]2CCCN2C(=O)[C@H]([C@@H](C)CC)NC(=O)[C@@H]2CSSC[C@@H]3NC(=O)[C@H](C(C)C)NC(=O)[C@H](CC(C)C)NC(=O)[C@H](CC(N)=O)NC(=O)[C@@H]4CCCN4C(=O)[C@H](CCCNC(=N)N)NC(=O)[C@H](CSSC[C@H](NC(=O)[C@@H](N)CC(=O)O)C(=O)N[C@@H](CC(C)C)C(=O)NCC(=O)N[C@@H](C)C(=O)N[C@@H](Cc4ccccc4)C(=O)N[C@@H](CCCNC(=N)N)C(=O)N[C@@H](CCCCN)C(=O)N2)NC(=O)[C@H](CSSC[C@@H](C(=O)N[C@@H](CCCCN)C(=O)N[C@@H](Cc2ccc(O)cc2)C(=O)N[C@H](C(=O)N[C@@H](Cc2ccccc2)C(N)=O)C(C)C)NC(=O)[C@H](Cc2c[nH]c4ccccc24)NC(=O)[C@H](CCCNC(=N)N)NC(=O)[C@H](Cc2c[nH]cn2)NC(=O)[C@H](CC(C)C)NC(=O)[C@H](CCCNC(=N)N)NC(=O)[C@H](CO)NC3=O)NC(=O)[C@H](CCCCN)NC(=O)[C@H](CC(=O)O)NC1=O` [compound 640] (H-DCLGAFRKCIPD[Pra]DKCCRPNLVCSRLHRWCKYVF-NH2; disulfide 2-17, 9-23, 16-30), the IC50 at hNav1.3 (use-dependent protocol, hNav1.3) was 0.09 µM; at hNav1.7 (use-dependent protocol, hNav1.7), 0.103 µM; on hNav1.5 (use-dependent protocol, hNav1.5) it was greater than 5 µM.
`CC[C@H](C)[C@H](NC(=O)[C@H](CCCCN)NC(=O)[C@@H]1CSSC[C@@H]2NC(=O)[C@H](CCCCN)NC(=O)[C@H](CC(=O)O)NC(=O)[C@H](CC(N)=O)NC(=O)[C@H](CC(=O)O)NC(=O)[C@@H]3CCCN3C(=O)[C@H]([C@@H](C)CC)NC(=O)[C@@H]3CSSC[C@H](NC(=O)[C@H](C(C)C)NC(=O)[C@H](CC(C)C)NC(=O)[C@H](CC(N)=O)NC(=O)[C@@H]4CCCN4C(=O)[C@H](CCCNC(=N)N)NC(=O)[C@H](CSSC[C@H](NC(=O)[C@@H](N)CC(=O)O)C(=O)N[C@@H](CC(C)C)C(=O)NCC(=O)N[C@@H](Cc4ccccc4)C(=O)N[C@@H](CCSC)C(=O)N[C@@H](CCCNC(=N)N)C(=O)N[C@@H](CCCCN)C(=O)N3)NC2=O)C(=O)N[C@@H](CO)C(=O)N[C@@H](CCCNC(=N)N)C(=O)N[C@@H]([C@@H](C)O)C(=O)N[C@@H](Cc2c[nH]cn2)C(=O)N[C@@H](CCCCN)C(=O)N[C@@H](Cc2c[nH]c3ccccc23)C(=O)N1)C(=O)N[C@H](C(=O)N[C@@H](Cc1ccccc1)C(N)=O)C(C)C` [compound 367] (H-DCLGFMRKCIPDNDKCCRPNLVCSRTHKWCKIVF-NH2; disulfide 2-17, 9-23, 16-30): the IC50 on hNav1.3 (Table 25, use, […]) was found to be 0.06 µM; at hNav1.7 (Table 25, use, […]), 0.07 µM; on hNav1.5 (Table 25, use, […]), 8.71 µM.
For `CC[C@H](C)[C@@H]1NC(=O)[C@@H]2CSSC[C@@H]3NC(=O)[C@H](C(C)C)NC(=O)[C@H](CC(C)C)NC(=O)[C@H](CC(N)=O)NC(=O)[C@@H]4CCCN4C(=O)[C@H](CCCNC(=N)N)NC(=O)[C@H](CSSC[C@H](NC(=O)[C@@H](N)CC(=O)O)C(=O)N[C@@H](CC(C)C)C(=O)NCC(=O)N[C@@H](C)C(=O)N[C@@H](Cc4ccccc4)C(=O)N[C@@H](CCCNC(=N)N)C(=O)N[C@@H](CCCCN)C(=O)N2)NC(=O)[C@H](CSSC[C@@H](C(=O)N[C@@H](CCCCN)C(=O)N[C@@H](Cc2ccc(O)cc2)C(=O)N[C@H](C(=O)N[C@@H](Cc2ccccc2)C(=O)O)C(C)C)NC(=O)[C@H](Cc2c[nH]c4ccccc24)NC(=O)[C@H](Cc2c[nH]cn2)NC(=O)[C@H](Cc2c[nH]cn2)NC(=O)[C@H]([C@@H](C)O)NC(=O)[C@H](CCCNC(=N)N)NC(=O)[C@H](CO)NC3=O)NC(=O)[C@H](CCCCN)NC(=O)[C@H](CC(=O)O)NC(=O)[C@H](CC(N)=O)NC(=O)[C@H](CC(=O)O)NC(=O)[C@@H]2CCCN2C1=O` [compound 828] (H-DCLGAFRKCIPDNDKCCRPNLVCSRTHHWCKYVF-OH; disulfide 2-17, 9-23, 16-30), the IC50 is greater than 5 µM on hNav1.3 (use-dependent block, hNav1.3); greater than 5 µM on hNav1.7 (use-dependent block, hNav1.7); greater than 5 µM at hNav1.5 (use-dependent block, hNav1.5).
In the case of `CC[C@H](C)[C@@H]1NC(=O)[C@@H]2CSSC[C@@H]3NC(=O)[C@H](Cc4ccccc4)N(C)C(=O)[C@H](CC(C)C)NC(=O)[C@H](CC(N)=O)NC(=O)[C@@H]4CCCN4C(=O)[C@H](CCCNC(=N)N)NC(=O)[C@H](CSSC[C@H](NC(=O)[C@@H](N)CC(=O)O)C(=O)N[C@@H](CC(C)C)C(=O)NCC(=O)N[C@@H](Cc4ccccc4)C(=O)N[C@@H](CCSC)C(=O)N[C@@H](CCCNC(=N)N)C(=O)N[C@@H](CCCCN)C(=O)N2)NC(=O)[C@H](CSSC[C@@H](C(=O)N[C@@H](CCCCN)C(=O)N[C@@H](Cc2ccc(O)cc2)C(=O)N[C@H](C(=O)N[C@@H](Cc2ccccc2)C(N)=O)C(C)C)NC(=O)[C@H](Cc2c[nH]c4ccccc24)NC(=O)[C@H](CCCCN)NC(=O)[C@H](Cc2c[nH]cn2)NC(=O)[C@H]([C@@H](C)O)NC(=O)[C@H](CCCNC(=N)N)NC(=O)[C@H](CO)NC3=O)NC(=O)[C@H](CCCCN)NC(=O)[C@H](CC(=O)O)NC(=O)[C@H](CC(N)=O)NC(=O)[C@H](CC(=O)O)NC(=O)[C@@H]2CCCN2C1=O` [compound 328] (H-DCLGFMRKCIPDNDKCCRPNL[NMeF]CSRTHKWCKYVF-NH2; disulfide 2-17, 9-23, 16-30), the IC50 at hNav1.3 (Use) amounted to 7.37 µM; on hNav1.7 (Use), 20.6 µM; at hNav1.5 (Use) it was 20.4 µM.
As to `CC[C@H](C)[C@@H]1NC(=O)[C@@H]2CSSC[C@@H]3NC(=O)[C@H](C(C)C)NC(=O)[C@H](CC(C)C)NC(=O)[C@H](CC(N)=O)NC(=O)[C@@H]4CCCN4C(=O)[C@H](CCCNC(=N)N)NC(=O)[C@H](CSSC[C@H](NC(=O)[C@@H](N)CC(=O)O)C(=O)N[C@@H](CC(C)C)C(=O)NCC(=O)N[C@@H](C)C(=O)N[C@@H](Cc4ccccc4)C(=O)N[C@@H](CCCNC(=N)N)C(=O)N[C@@H](CCCCN)C(=O)N2)NC(=O)[C@H](CSSC[C@@H](C(=O)N[C@@H](CCCCN)C(=O)N[C@@H](Cc2ccc(O)cc2)C(=O)N[C@H](C(=O)N[C@@H](Cc2ccccc2)C(=O)O)C(C)C)NC(=O)[C@H](Cc2c[nH]c4ccccc24)NC(=O)[C@H](CCCNC(=N)N)NC(=O)[C@H](Cc2c[nH]cn2)NC(=O)[C@H]([C@@H](C)O)NC(=O)[C@H](CCCNC(=N)N)NC(=O)[C@H](CO)NC3=O)NC(=O)[C@H](CCCCN)NC(=O)[C@H](CC(=O)O)NC(=O)CNC(=O)[C@H](CC(=O)O)NC(=O)[C@@H]2CCCN2C1=O` [compound 840], the IC50 on hNav1.3 (use-dependent block, hNav1.3) is 1.5 µM; at hNav1.7 (use-dependent block, hNav1.7), greater than 5 µM; at hNav1.5 (use-dependent block, hNav1.5) it was greater than 5 µM.
Consider `CC[C@H](C)[C@@H]1NC(=O)[C@@H]2CSSC[C@@H]3NC(=O)[C@H](C(C)C)NC(=O)[C@H](CC(C)C)NC(=O)[C@H](CC(N)=O)NC(=O)[C@@H]4CCCN4C(=O)[C@H](CCCNC(=N)N)NC(=O)[C@H](CSSC[C@H](NC(=O)[C@@H](N)CC(=O)O)C(=O)N[C@@H](CC(C)C)C(=O)NCC(=O)N[C@@H](Cc4ccccc4)C(=O)N[C@@H](CCSC)C(=O)N[C@@H](CCCNC(=N)N)C(=O)N[C@@H](CCCCN)C(=O)N2)NC(=O)[C@H](CSSC[C@@H](C(=O)N[C@@H](CCCCN)C(=O)N[C@@H](Cc2ccc(O)cc2)C(=O)N[C@@H](Cc2c[nH]c4ccccc24)C(=O)N[C@@H](Cc2ccccc2)C(N)=O)NC(=O)[C@H](Cc2c[nH]c4ccccc24)NC(=O)[C@H](CCCCN)NC(=O)[C@H](Cc2c[nH]cn2)NC(=O)[C@H](CC(C)C)NC(=O)[C@H](CCCNC(=N)N)NC(=O)[C@H](CO)NC3=O)NC(=O)[C@H](CCCCN)NC(=O)[C@H](CC(=O)O)NC(=O)[C@H](CC(N)=O)NC(=O)[C@H](CC(=O)O)NC(=O)[C@@H]2CCCN2C1=O` [compound 447] (H-DCLGFMRKCIPDNDKCCRPNLVCSRLHKWCKYWF-NH2; disulfide 2-17, 9-23, 16-30), for which the IC50 on hNav1.3 (use-dependent block, hNav1.3) is 0.02 µM; on hNav1.7 (use-dependent block, hNav1.7), 0.03 µM; at hNav1.5 (use-dependent block, hNav1.5) it was greater than 5 µM.
With `CC[C@H](C)[C@@H]1NC(=O)[C@@H]2CSSC[C@@H]3NC(=O)[C@H](C(C)C)NC(=O)[C@H](CC(C)C)NC(=O)[C@H](CC(N)=O)NC(=O)[C@@H]4CCCN4C(=O)[C@H](CCCNC(=N)N)NC(=O)[C@H](CSSC[C@H](NC(=O)[C@@H](N)CC(=O)O)C(=O)N[C@@H](CC(C)C)C(=O)NCC(=O)N[C@@H](Cc4ccccc4)C(=O)N[C@@H](CCSC)C(=O)N[C@@H](CCCNC(=N)N)C(=O)N[C@@H](CCCCN)C(=O)N2)NC(=O)[C@H](CSSC[C@@H](C(=O)N[C@@H](CCCCN)C(=O)N[C@@H](CCCCN)C(=O)N[C@H](C(=O)N[C@@H](Cc2ccccc2)C(N)=O)C(C)C)NC(=O)[C@H](Cc2c[nH]c4ccccc24)NC(=O)[C@H](CCCCN)NC(=O)[C@H](Cc2cnc[nH]2)NC(=O)[C@H]([C@@H](C)O)NC(=O)[C@H](CCCNC(=N)N)NC(=O)[C@H](CO)NC3=O)NC(=O)[C@H](CCCCN)NC(=O)[C@H](CC(=O)O)NC(=O)[C@H](CC(N)=O)NC(=O)[C@H](CC(=O)O)NC(=O)[C@@H]2CCCN2C1=O` [compound 57] (H-DCLGFMRKCIPDNDKCCRPNLVCSRTHKWCKKVF-NH2; disulfide 2-17, 9-23, 16-30), the IC50 at hNav1.3 (Table 25, use, […]) amounted to 4.19 µM; at hNav1.7 (Table 25, use, […]) it was 4.96 µM; at hNav1.5 (Table 25, use, […]), 10.9 µM.
